According to the NIST ThermoML archive (doi:10.1021/je800110r):
Numbers after ± are expanded uncertainties.

Settings: 323.15 K, Liquid, Vibrating tube method

CCCCCCCCCC [decane]
Settings	mass density [kg/m3]
13966 kPa	719 ± 2
13981 kPa	719.1 ± 2
14001 kPa	719 ± 2
14021 kPa	719 ± 2
14043 kPa	719 ± 2
14066 kPa	719.2 ± 2
14084 kPa	719.2 ± 2
14099 kPa	719.1 ± 2
14124 kPa	719.2 ± 2
14140 kPa	719.3 ± 2
14160 kPa	719.2 ± 2
14173 kPa	719.2 ± 2
14274 kPa	719.2 ± 2
14317 kPa	719.3 ± 2
14348 kPa	719.5 ± 2
14364 kPa	719.3 ± 2
14385 kPa	719.4 ± 2
14404 kPa	719.4 ± 2
14424 kPa	719.4 ± 2
14622 kPa	719.6 ± 2
14631 kPa	719.5 ± 2
14647 kPa	719.5 ± 2
14657 kPa	719.7 ± 2
14679 kPa	719.6 ± 2
14688 kPa	719.6 ± 2
14701 kPa	719.6 ± 2
14711 kPa	719.7 ± 2
14725 kPa	719.7 ± 2
14741 kPa	719.6 ± 2
14753 kPa	719.7 ± 2
15015 kPa	719.9 ± 2
15023 kPa	719.9 ± 2
15033 kPa	719.8 ± 2
15047 kPa	720 ± 2
15058 kPa	719.9 ± 2
15068 kPa	719.9 ± 2
15085 kPa	720 ± 2
15095 kPa	719.9 ± 2
15112 kPa	720 ± 2
15120 kPa	719.9 ± 2
15130 kPa	719.9 ± 2
15143 kPa	720.1 ± 2
15159 kPa	720 ± 2
15170 kPa	720 ± 2
15184 kPa	720 ± 2
15196 kPa	720.1 ± 2
15211 kPa	720 ± 2
15222 kPa	720 ± 2
15237 kPa	720 ± 2
15249 kPa	720 ± 2
15266 kPa	720.1 ± 2
15275 kPa	720.1 ± 2
15286 kPa	720 ± 2
15303 kPa	720.2 ± 2
15312 kPa	720.1 ± 2
15326 kPa	720.1 ± 2
15340 kPa	720.2 ± 2
15388 kPa	720.2 ± 2
15397 kPa	720.2 ± 2
15411 kPa	720.2 ± 2
15423 kPa	720.2 ± 2
15686 kPa	720.4 ± 2
15697 kPa	720.5 ± 2
15712 kPa	720.4 ± 2
15721 kPa	720.5 ± 2
16291 kPa	721 ± 2
16333 kPa	721 ± 2
16345 kPa	721.1 ± 2
16357 kPa	720.9 ± 2
16371 kPa	721.1 ± 2
16383 kPa	720.9 ± 2
16398 kPa	721.1 ± 2
16410 kPa	720.9 ± 2
16426 kPa	721.1 ± 2
16436 kPa	721.1 ± 2
16448 kPa	721.1 ± 2
16460 kPa	721.2 ± 2
16473 kPa	721 ± 2
16595 kPa	721.1 ± 2
16627 kPa	721.2 ± 2
16637 kPa	721.2 ± 2
16673 kPa	721.2 ± 2
16691 kPa	721.2 ± 2
16708 kPa	721.1 ± 2
16721 kPa	721.3 ± 2
16735 kPa	721.2 ± 2
16752 kPa	721.2 ± 2
16764 kPa	721.2 ± 2
16784 kPa	721.3 ± 2
16797 kPa	721.3 ± 2
16817 kPa	721.4 ± 2
16829 kPa	721.3 ± 2
16849 kPa	721.4 ± 2
16864 kPa	721.5 ± 2
16876 kPa	721.4 ± 2
16889 kPa	721.3 ± 2
16910 kPa	721.3 ± 2
16921 kPa	721.4 ± 2
16934 kPa	721.4 ± 2
16951 kPa	721.4 ± 2
16964 kPa	721.4 ± 2
16980 kPa	721.5 ± 2
16995 kPa	721.4 ± 2
17043 kPa	721.5 ± 2
17058 kPa	721.4 ± 2
17077 kPa	721.6 ± 2
17095 kPa	721.5 ± 2
17112 kPa	721.4 ± 2
17130 kPa	721.6 ± 2
17141 kPa	721.5 ± 2
17157 kPa	721.6 ± 2
17172 kPa	721.4 ± 2
17190 kPa	721.6 ± 2
17203 kPa	721.6 ± 2
17223 kPa	721.6 ± 2
17241 kPa	721.6 ± 2
17254 kPa	721.7 ± 2
17628 kPa	722 ± 2
18716 kPa	722.8 ± 2
18779 kPa	722.8 ± 2
18862 kPa	722.9 ± 2
18883 kPa	722.8 ± 2
19079 kPa	723 ± 2
19095 kPa	723.2 ± 2
19120 kPa	723 ± 2
19140 kPa	723.1 ± 2
19159 kPa	723.1 ± 2
19176 kPa	723.2 ± 2
19198 kPa	723.2 ± 2
19220 kPa	723.2 ± 2
19240 kPa	723.2 ± 2
19286 kPa	723.3 ± 2
19330 kPa	723.3 ± 2
19527 kPa	723.5 ± 2
19547 kPa	723.4 ± 2
19614 kPa	723.5 ± 2
19699 kPa	723.6 ± 2
